The values that follow come from patent US11839610B2 (priority 2022, dated 2023).

For this assay, the system named is D614G S protein pseudovirus (nCoV-S-Luc-D614G) in ACE2-293T cells. The assay is classed as cell-based, SARS-CoV-2.

Read-outs that look alike come from different tables or passages of the source.

For the compound `COc1cc2c3cc1Oc1c4c(cc5c1[C@H](Cc1ccc(cc1)Oc1cc(ccc1O)C[C@H]3N(C)CC2)N(C)CC5)OCO4` [Cepharanoline], the “Levels of viral infection, D614G, Ave.” value by setting is: (Conc. 0.1 μM) 72.97%; (Conc. 1 μM) 39.14%; (Conc. 10 μM) −20.02%. Also, for the setting “read-out: 50% inhibitory concentrations (IC50) for viral infection, D614G”, the IC50 worked out at 480 ± 90 nM.
